What was measured:
[1] = tested on: Leishmania donovani; test: Antiparasitic activity against Leishmania donovani MHOM-ET-67/L82 axenic amastigotes assessed as growth inhibition at 0.8 ug/ml after 72 hrs by resazurin dye-based fluorometric analysis relative to control; type: functional; settings: MHOM-ET-67/L82, 72 h, read-out: GI
[2] = tested on: Leishmania donovani; test: Antiparasitic activity against Leishmania donovani MHOM-ET-67/L82 axenic amastigotes assessed as growth inhibition at 4.8 ug/ml after 72 hrs by resazurin dye-based fluorometric analysis relative to control; type: functional; settings: MHOM-ET-67/L82, 72 h, read-out: GI
[3] = tested on: Trypanosoma cruzi; test: Antiparasitic activity against Trypanosoma cruzi Tulahuen C4 intracellular amastigotes infected in rat L6 cells assessed as growth inhibition at 0.8 ug/ml after 96 hrs by CPRG/Nonidet reagent based photometric analysis relative to control; type: functional; settings: Tulahuen C4, L6, 96 h, read-out: GI
[4] = tested on: Trypanosoma cruzi; test: Antiparasitic activity against Trypanosoma cruzi Tulahuen C4 intracellular amastigotes infected in rat L6 cells assessed as growth inhibition at 4.8 ug/ml after 96 hrs by CPRG/Nonidet reagent based photometric analysis relative to control; type: functional; settings: Tulahuen C4, L6, 96 h, read-out: GI
[5] = tested on: Plasmodium falciparum; test: (§1) Antiparasitic activity against intraerythrocytic form of chloroquine/pyrimethamine-resistant Plasmodium falciparum K1 infected in human RBC assessed as growth inhibition at 0.8 ug/ml preincubated for 48 hrs followed by [3H]-hypoxanthine addition measured after 24 hrs by liquid scintillation counting analysis relative to control; type: functional; settings: read-out: GI
[6] = tested on: Plasmodium falciparum; test: as §1, with “4.8” for “0.8”; type: functional; settings: read-out: GI
[7] = tested on: Trypanosoma brucei rhodesiense; test: Antiparasitic activity against Trypanosoma brucei rhodesiense STIB 900 trypomastigote bloodstream form assessed as growth inhibition at 0.8 ug/ml after 72 hrs by resazurin dye-based fluorometric analysis relative to control; type: functional; settings: STIB 900, 72 h, read-out: GI
[8] = tested on: Trypanosoma brucei rhodesiense; test: Antiparasitic activity against Trypanosoma brucei rhodesiense STIB 900 trypomastigote bloodstream form assessed as growth inhibition at 4.8 ug/ml after 72 hrs by resazurin dye-based fluorometric analysis relative to control; type: functional; settings: STIB 900, 72 h, read-out: GI
[9] = tested on: Leishmania donovani; test: Antiparasitic activity against Leishmania donovani MHOM-ET-67/L82 axenic amastigotes after 72 hrs by Alamar blue assay; type: functional; settings: MHOM-ET-67/L82, 72 h
[10] = tested on: L6; test: Cytotoxicity against rat L6 cells assessed as cell viability after 72 hrs by Alamar blue assay; type: cell-based; settings: L6, 72 h
[11] = Selectivity index, ratio of IC50 for rat L6 cells to IC50 for Leishmania donovani MHOM-ET-67/L82 axenic amastigotes; type: toxicity; settings: read-out: Ratio IC50
[12] = Selectivity index, ratio of IC50 for rat L6 cells to IC50 for Trypanosoma cruzi Tulahuen C4 intracellular amastigotes infected in rat L6 cells; type: toxicity, cell-based; settings: read-out: Ratio IC50
[13] = Selectivity index, ratio of IC50 for rat L6 cells to IC50 for intraerythrocytic form of chloroquine/pyrimethamine-resistant Plasmodium falciparum K1 infected in human RBC; type: toxicity; settings: read-out: Ratio IC50
[14] = tested on: Leishmania donovani; test: Antiparasitic activity against Leishmania donovani MHOM-ET-67/L82 axenic amastigotes; type: functional
[15] = tested on: Trypanosoma cruzi; test: Antiparasitic activity against Trypanosoma cruzi Tulahuen C4 intracellular amastigotes infected in rat L6 cells; type: functional, cell-based
[16] = tested on: Plasmodium falciparum; test: Antiparasitic activity against intraerythrocytic form of chloroquine/pyrimethamine-resistant Plasmodium falciparum K1; type: functional
[17] = tested on: L6; test: Cytotoxicity against rat L6 cells; type: cell-based
[18] = tested on: Trypanosoma cruzi; test: Antiparasitic activity against Trypanosoma cruzi Tulahuen C4 intracellular amastigotes infected in rat L6 cells after 96 hrs by CPRG/Nonidet reagent based photometric analysis; type: functional, cell-based; settings: Tulahuen C4, L6, 96 h
[19] = tested on: Plasmodium falciparum; test: Antiparasitic activity against intraerythrocytic form of chloroquine/pyrimethamine-resistant Plasmodium falciparum K1 infected in human RBC preincubated for 48 hrs followed by [3H]-hypoxanthine addition measured after 24 hrs by liquid scintillation counting analysis; type: functional

Row | SMILES | inhibition of growth at 0.8 µg/mL [1] [%] | inhibition of growth at 4.8 µg/mL [2] [%] | inhibition of growth at 0.8 µg/mL [3] [%] | inhibition of growth at 4.8 µg/mL [4] [%] | inhibition of growth at 0.8 µg/mL [5] [%] | inhibition of growth at 4.8 µg/mL [6] [%] | inhibition of growth at 0.8 µg/mL [7] [%] | inhibition of growth at 4.8 µg/mL [8] [%] | IC50 [9] [µM] | IC50 [10] [µM] | selectivity ratio [11] | selectivity ratio [12] | selectivity ratio [13] | IC50 [14] [µM] | IC50 [15] [µM] | IC50 [16] [µM] | IC50 [17] [µM] | IC50 [18] [µM] | IC50 [19] [µM]
1 | Cc1cc(C)c(C)c(S(=O)(=O)N2CCCc3ccccc32)c1C | 94.2 | 100 | 15.5 | 60.3 | 3.1 | 56.5 | 2.7 | 3.7 | 0.36 | 2.71 | 7.53 |  |  |  |  |  |  |  | 
2 | CCCCCCCCCCCCCCCCOP(=O)([O-])OCC[N+](C)(C)C [MILTEFOSINE] | 60.1 | 93.3 |  |  |  |  |  |  | 0.25 |  |  |  |  |  |  |  |  |  | 
3 | Cc1cc(C)c(C)c(S(=O)(=O)N2CCc3ccccc3C2)c1C | 63.3 | 100 | 1.8 | 23.1 | 4.5 | 18.8 | 2 | 1.7 | 0.76 | 3.6 | 4.8 |  |  |  |  |  |  |  | 
4 | Cc1cc(C)c(C)c(S(=O)(=O)n2ccc3ccccc32)c1C | 76.4 | 100 | 0.2 | 24.7 | 3.2 | 41.4 | 3.1 | 2.7 | 0.64 | 8.97 | 13.4 |  |  |  |  |  |  |  | 
5 | O=S(=O)(c1ccc(Cl)cc1)N1CCCc2ccccc21 |  |  |  |  |  |  |  |  |  |  | 1.09 | 1.28 | 2.43 | 18.9 | 16 | 8.43 | 20.5 |  | 
6 | O=S(=O)(c1ccc(Br)cc1)N1CCCc2ccccc21 |  |  |  |  |  |  |  |  |  |  | 0.34 | 0.53 | 1.11 | 21.4 | 13.8 | 6.65 | 7.36 |  | 
7 | CC1CCc2ccccc2N1S(=O)(=O)c1ccc(C(C)(C)C)cc1 (stereo not given) | 62 | 100 | 28 | 100 | 79.9 | 100 | 8.2 | 0 | 2.16 | 6.81 | 3.15 | 1.12 | 4.57 |  |  |  |  | 6.06 | 1.5

Reference: ChEMBL document CHEMBL4043153, “Lead selection of antiparasitic compounds from a focused library of benzenesulfonyl derivatives of heterocycles” (Bioorg Med Chem Lett, 2017)
